In article PMC12337661, “PIEZO1 mechanical insensitivity in generalized lymphatic dysplasia with the potential for pharmacological rescue” (iScience, 2025):
Where “and” joins values, the source holds several entries; their conditions need not be identical. Equal values may be shown once.

Tests used:
Type in all cases: cell-based
I2286T mPIEZO1 = target: T1, I2286T mPIEZO1 (Mus musculus, UniProt E2JF22, I2286T); test: Outside-out patch recording with pressure pulses; conditions: 5 μM; for current (example trace): 75 mmHg pulses
T1 construct: expressed in transfected cells
Description: (§1) Ionic currents were recorded through outside-out patches from cells using standard patch-clamp techniques in voltage-clamp mode. Patch pipettes were fire-polished and had resistance of 4–7 MΩ when filled with pipette solution. Ionic solution of composition (mM) NaCl 140, HEPES 10 and EGTA 5 (titrated to pH 7.4 using NaOH) was used in both the pipette and bath. Recordings were at a constant holding potential of −80 mV. 200-ms pressure steps were applied to the patch pipette with an interval of 12 s using High Speed Pressure Clamp HSPC-1 System (ALA Scientific Instruments, USA). All recordings were made with an Axopatch-200B amplifier (Axon Instruments, Inc., USA) equipped with Digidata 1550B and pClamp (v10.6) software (Molecular Devices, USA) at room temperature (21 ± 2°C). Currents were filtered at 2–5 kHz and digitally sampled at 5–20 kHz.

G1994D mPIEZO1 = target: T2, G1994D mPIEZO1 (Mus musculus, UniProt E2JF22, G1994D); test: Outside-out patch recording with pressure pulses; conditions: for Currents at given pressure / Pressure-response, individual cells (Figure 5f) / Mean (pressure-response, Figure 5f): G1994D + Yoda1; for Pressure-response, individual cells (Figure 5f): cell1-cell10; for Mean (pressure-response, Figure 5f): mean of cells 1-10;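 as to Mean (pressure-response, Figure 5f): peak current normalised to each patch's maximum peak current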;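 as to Pressure-response, individual cells (Figure 5f): peak current normalised to each patch's maximum peak current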
T2 construct: expressed in transfected cells
Description: as §1

I2270T hPIEZO1 = target: T3, I2270T hPIEZO1 (Homo sapiens, UniProt Q92508, I2270T); test: Intracellular Ca2+ measurement (fura-2), T-REx-293 cells transiently transfected
T3 construct: expressed in transfected cells; host or cells: T-REx-293 (modified HEK293), transient
Description: HEK 293 cell line was transiently transfected at 90% confluence using Lipofectamine 2000 (Invitrogen) in OptiMEM (Gibco). Briefly: 500 ng endotoxin-free DNA per 100μL OptiMEM was prepared alongside 3μL Lipofectamine 2000 per 100μL OptiMEM (Gibco). Both were incubated for 5 min and then mixed, and then incubated at room temperature (21°C–24°C) for 20–30 min. Finally, the transfection mix was gently added dropwise to the cells and the cells were placed in a humidified incubator at 37°C supplied with 5% CO2 for 5 h. Medium was replaced afterward, and cells were used for experimentation 48 h after transfection.
For intracellular Ca^2+ assays, cells were plated at 80–90% confluence in 96-well plates 24 h prior to recordings (6–8 × 10^4 cells per well). […] Cells were washed with SBS and incubated at room temperature for 20 min prior to recordings. Equal volumes of 2x concentrated compounds were injected to test for acute channel activation. Pre-incubation with compounds occurred during the 20 min prior to recordings. To expose cell membranes to hypo-osmolality, an equal volume of hypotonic SBS (containing only 35 mM NaCl) was injected onto the cells. Measurements were made on a fluorescence plate reader (Flexstation III, Molecular Devices) at room temperature (21 ± 2°C). Fura-2 was excited at 340 nm and 380 nm and emitted light collected at 510 nm, with measurements shown as the change in fluorescence (F) ratio (ΔF340/380).
KC41 (Dooku1) was prepared as described.[28] All purchased chemicals and solvents were used without further purification unless otherwise stated. All compounds were at least 95% pure by 1H NMR. 1H Nuclear Magnetic Resonance spectra were recorded at 500 MHz using a Bruker DRX 500 instrument or at 400 MHz using a Bruker DPX 400. 1H spectra are referenced based on the residual proton in the solvent (e.g., the CHCl3, 0.01% in 99.99% CDCl3). Coupling constants (J) are reported to the nearest 0.1 Hz. 13C NMR spectra were recorded at 125 MHz on 500 MHz spectrometers or at 100 MHz on 400 MHz spectrometers. LC-MS was performed on a Bruker Daltronics running a gradient of increasing acetonitrile (5–95%) in H2O both containing 0.1% formic acid at 1 mL.min^−1, on a short path C18 reverse phase column, detecting compounds with both a diode array detector and a Bruker mass spectrum analyser. HRMS was performed on a Bruker Daltonics micrOTOF using positive electrospray ionisation (ES+). Automated column chromatograph was carried out using a Biotage Isolera Four, using either Sfär Silica D or KP-Silica cartridges. HPLC was performed on an Agilent 1290 Infinity Series equipped with a UV detector and Hyperprep C18 reverse phase column. Key to NMR abbreviations: s (singlet), br s (broad singlet) d (doublet), dd (doublet of doublets), ddd (doublet of doublets of doublets), t (triplet), dt (doublet of triples), q (quartet), m (multiplet), ap. t (apparent triplet). For experiments, Yoda1 and its analogues were prepared as 10 mM stock solutions in 100% dimethyl sulfoxide (DMSO) before serial dilution in DMSO and final dilution in aqueous solution. Cells were exposed to 0.1% DMSO for all concentrations of the compounds from 0 to 10 μM.

T1 sequence (E2JF22 whole entry I2286T): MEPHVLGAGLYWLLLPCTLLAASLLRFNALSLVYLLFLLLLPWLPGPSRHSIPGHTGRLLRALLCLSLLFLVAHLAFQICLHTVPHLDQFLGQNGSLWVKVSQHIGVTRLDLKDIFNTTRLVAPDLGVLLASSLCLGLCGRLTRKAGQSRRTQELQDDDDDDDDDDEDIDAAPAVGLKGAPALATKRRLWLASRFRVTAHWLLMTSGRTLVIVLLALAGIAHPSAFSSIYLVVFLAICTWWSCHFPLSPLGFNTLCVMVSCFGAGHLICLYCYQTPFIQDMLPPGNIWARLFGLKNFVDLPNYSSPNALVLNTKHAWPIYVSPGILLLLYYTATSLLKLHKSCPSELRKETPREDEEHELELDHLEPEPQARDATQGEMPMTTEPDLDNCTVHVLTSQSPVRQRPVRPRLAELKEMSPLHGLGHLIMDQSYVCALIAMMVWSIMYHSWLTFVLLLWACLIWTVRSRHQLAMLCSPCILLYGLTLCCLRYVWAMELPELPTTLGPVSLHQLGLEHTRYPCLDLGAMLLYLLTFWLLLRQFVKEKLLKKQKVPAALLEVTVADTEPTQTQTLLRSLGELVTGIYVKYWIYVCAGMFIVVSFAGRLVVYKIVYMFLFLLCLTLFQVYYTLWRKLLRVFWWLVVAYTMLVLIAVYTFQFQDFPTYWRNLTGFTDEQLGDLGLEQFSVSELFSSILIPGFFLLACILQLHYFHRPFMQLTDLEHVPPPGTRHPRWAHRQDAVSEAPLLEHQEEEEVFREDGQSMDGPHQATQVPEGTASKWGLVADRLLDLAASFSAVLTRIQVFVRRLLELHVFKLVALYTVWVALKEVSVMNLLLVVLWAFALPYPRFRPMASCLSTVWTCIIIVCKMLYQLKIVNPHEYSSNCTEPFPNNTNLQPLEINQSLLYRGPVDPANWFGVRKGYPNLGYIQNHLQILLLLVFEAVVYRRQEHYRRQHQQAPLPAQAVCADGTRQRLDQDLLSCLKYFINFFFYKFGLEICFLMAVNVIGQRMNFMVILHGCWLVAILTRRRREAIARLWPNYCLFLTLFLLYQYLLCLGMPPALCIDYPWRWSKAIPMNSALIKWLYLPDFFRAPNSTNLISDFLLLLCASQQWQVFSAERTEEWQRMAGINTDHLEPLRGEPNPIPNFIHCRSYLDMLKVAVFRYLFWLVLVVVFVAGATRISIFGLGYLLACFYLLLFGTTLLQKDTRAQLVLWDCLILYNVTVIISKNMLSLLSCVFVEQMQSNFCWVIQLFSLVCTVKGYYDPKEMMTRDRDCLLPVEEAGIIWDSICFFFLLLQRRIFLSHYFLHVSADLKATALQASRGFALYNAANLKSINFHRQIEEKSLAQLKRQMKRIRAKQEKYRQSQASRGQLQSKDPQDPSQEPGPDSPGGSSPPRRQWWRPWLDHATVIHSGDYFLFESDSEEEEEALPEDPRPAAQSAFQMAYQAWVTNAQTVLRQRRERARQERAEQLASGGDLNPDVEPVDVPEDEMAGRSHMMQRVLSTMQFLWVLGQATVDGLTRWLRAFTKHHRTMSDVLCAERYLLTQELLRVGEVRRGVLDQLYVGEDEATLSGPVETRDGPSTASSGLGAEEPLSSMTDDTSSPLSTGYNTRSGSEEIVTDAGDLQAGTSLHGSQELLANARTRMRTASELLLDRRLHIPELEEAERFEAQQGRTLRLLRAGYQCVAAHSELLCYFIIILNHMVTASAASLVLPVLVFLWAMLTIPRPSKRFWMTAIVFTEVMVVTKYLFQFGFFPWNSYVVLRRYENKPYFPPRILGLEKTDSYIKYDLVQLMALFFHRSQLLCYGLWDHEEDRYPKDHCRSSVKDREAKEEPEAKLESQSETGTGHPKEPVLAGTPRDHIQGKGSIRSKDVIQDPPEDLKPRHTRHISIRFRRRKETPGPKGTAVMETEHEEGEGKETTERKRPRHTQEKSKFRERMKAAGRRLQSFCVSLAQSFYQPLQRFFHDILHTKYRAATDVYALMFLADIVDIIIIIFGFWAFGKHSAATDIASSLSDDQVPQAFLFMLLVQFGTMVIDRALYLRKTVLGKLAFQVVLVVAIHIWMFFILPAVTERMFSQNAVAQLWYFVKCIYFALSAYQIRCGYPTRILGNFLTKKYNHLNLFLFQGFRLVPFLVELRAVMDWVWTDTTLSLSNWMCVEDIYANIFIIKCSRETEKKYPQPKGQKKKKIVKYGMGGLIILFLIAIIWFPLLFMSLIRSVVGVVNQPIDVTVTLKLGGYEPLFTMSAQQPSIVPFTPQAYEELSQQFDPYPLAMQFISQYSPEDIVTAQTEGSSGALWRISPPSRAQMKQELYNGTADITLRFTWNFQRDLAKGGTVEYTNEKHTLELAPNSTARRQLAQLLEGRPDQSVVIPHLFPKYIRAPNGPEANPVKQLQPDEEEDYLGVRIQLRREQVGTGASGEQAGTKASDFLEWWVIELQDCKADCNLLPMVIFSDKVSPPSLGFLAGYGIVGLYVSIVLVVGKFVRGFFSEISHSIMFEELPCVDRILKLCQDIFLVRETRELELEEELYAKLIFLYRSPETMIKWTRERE
T2 sequence (E2JF22 whole entry G1994D): as the sequence (E2JF22 whole entry I2286T) above, with G1994D, T2286I counted along it
T3 sequence (Q92508 whole entry I2270T): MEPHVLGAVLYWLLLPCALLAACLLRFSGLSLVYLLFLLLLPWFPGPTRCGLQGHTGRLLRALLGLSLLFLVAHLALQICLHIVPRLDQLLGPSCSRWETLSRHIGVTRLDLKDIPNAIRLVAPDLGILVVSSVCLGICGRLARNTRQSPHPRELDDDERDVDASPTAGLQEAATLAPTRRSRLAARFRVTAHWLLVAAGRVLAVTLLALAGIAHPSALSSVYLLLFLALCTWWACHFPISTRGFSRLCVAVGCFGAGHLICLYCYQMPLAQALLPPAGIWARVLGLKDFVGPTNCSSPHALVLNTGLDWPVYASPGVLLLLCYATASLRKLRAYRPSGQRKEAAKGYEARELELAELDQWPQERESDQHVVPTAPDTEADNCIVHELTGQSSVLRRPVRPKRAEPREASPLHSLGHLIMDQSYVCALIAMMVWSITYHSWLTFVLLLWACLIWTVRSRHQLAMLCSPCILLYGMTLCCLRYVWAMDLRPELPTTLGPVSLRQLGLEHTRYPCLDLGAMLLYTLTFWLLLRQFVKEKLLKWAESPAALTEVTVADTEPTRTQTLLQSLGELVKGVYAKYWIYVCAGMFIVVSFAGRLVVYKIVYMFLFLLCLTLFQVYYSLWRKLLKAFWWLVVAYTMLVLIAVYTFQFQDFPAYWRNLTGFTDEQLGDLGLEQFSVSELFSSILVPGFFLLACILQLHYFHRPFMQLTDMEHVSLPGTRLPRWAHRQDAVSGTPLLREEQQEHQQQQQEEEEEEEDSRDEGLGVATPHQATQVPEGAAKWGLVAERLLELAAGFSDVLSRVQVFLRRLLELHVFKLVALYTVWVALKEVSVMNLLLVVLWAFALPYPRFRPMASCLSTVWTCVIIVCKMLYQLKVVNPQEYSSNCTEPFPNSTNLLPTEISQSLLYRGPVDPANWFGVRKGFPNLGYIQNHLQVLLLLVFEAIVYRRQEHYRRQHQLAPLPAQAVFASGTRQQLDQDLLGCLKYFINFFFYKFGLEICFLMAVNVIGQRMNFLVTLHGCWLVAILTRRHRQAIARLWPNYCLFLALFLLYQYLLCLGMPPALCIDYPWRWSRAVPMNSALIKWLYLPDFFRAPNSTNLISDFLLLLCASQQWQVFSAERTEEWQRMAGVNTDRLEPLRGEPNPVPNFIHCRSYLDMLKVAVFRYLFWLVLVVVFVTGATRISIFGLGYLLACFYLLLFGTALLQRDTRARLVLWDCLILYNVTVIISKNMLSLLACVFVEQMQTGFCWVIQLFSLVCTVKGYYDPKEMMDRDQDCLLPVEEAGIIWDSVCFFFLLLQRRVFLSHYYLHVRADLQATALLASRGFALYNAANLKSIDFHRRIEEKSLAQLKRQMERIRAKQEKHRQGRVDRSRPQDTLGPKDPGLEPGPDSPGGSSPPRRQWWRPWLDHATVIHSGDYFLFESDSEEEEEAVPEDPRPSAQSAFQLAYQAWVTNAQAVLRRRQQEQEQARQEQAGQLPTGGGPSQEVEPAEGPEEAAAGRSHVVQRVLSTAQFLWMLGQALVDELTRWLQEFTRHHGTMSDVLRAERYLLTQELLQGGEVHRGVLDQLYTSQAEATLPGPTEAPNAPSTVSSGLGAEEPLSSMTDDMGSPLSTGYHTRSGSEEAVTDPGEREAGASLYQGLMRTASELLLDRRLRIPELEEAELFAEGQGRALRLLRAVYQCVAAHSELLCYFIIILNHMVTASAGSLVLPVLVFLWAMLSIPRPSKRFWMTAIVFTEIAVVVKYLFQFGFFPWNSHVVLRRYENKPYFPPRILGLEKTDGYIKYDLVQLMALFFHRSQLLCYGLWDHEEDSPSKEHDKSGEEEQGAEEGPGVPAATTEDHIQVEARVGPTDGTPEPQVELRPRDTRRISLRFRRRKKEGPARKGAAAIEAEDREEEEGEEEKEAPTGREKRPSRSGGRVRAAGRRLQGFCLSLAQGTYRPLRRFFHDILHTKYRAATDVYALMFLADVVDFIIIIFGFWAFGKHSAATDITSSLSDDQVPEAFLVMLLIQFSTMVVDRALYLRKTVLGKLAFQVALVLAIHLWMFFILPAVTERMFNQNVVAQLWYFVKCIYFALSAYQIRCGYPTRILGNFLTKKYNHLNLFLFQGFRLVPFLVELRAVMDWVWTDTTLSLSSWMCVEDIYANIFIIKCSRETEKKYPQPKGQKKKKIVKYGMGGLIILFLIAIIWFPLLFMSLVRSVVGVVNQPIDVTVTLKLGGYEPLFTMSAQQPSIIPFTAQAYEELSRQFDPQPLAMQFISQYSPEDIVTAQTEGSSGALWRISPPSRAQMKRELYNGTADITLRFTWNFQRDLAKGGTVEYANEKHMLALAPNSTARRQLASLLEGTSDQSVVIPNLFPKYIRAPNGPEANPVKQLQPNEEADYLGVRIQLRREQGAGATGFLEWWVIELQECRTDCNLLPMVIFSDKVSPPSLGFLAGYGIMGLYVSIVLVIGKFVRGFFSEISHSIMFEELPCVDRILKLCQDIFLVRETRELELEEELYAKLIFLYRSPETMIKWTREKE

- mechanical activation in the presence of the compound (I2286T mPIEZO1; 75 mmHg pressure pulses): pressure-evoked current now occurred
- current (example trace) (I2286T mPIEZO1; time 30.5 ms): -0.41 pA
- current (example trace) (I2286T mPIEZO1; time 30.5002 ms): -0.2269 pA
- current (example trace) (I2286T mPIEZO1; time 30.5004 ms): -0.5932 pA
- maximum amplitude of current evoked by the pressure pulse, Mean (I2286T mPIEZO1; 75 mmHg, -80 mV, n = 7): -80.8694 pA
- Currents at given pressure (G1994D mPIEZO1; 0 mmHg, time 200.1 ms): -1.831 pA
- Currents at given pressure (G1994D mPIEZO1; 0 mmHg, time 200.15 ms): 0.2743 pA
- Currents at given pressure (G1994D mPIEZO1; 0 mmHg, time 200.2 ms): -1.526 pA
- Currents at given pressure (G1994D mPIEZO1; 15 mmHg, time 200.1 ms): 1.03 pA
- Currents at given pressure (G1994D mPIEZO1; 15 mmHg, time 200.15 ms): -0.5571 pA
- Currents at given pressure (G1994D mPIEZO1; 15 mmHg, time 200.2 ms): -0.1298 pA
- Currents at given pressure (G1994D mPIEZO1; 30 mmHg, time 200.1 ms): -11.9666 pA
- Currents at given pressure (G1994D mPIEZO1; 30 mmHg, time 200.15 ms): -9.769 pA
- Currents at given pressure (G1994D mPIEZO1; 30 mmHg, time 200.2 ms): -5.161 pA
- Currents at given pressure (G1994D mPIEZO1; 45 mmHg, time 200.1 ms): -2.0839 pA
- Currents at given pressure (G1994D mPIEZO1; 45 mmHg, time 200.15 ms): -0.6801 pA
- Currents at given pressure (G1994D mPIEZO1; 45 mmHg, time 200.2 ms): -0.497 pA
- Currents at given pressure (G1994D mPIEZO1; 60 mmHg, time 200.1 ms): 1.1543 pA
- Currents at given pressure (G1994D mPIEZO1; 60 mmHg, time 200.15 ms): -0.9209 pA
- Currents at given pressure (G1994D mPIEZO1; 60 mmHg, time 200.2 ms): -0.8599 pA
- Currents at given pressure (G1994D mPIEZO1; 75 mmHg, time 200.1 ms): -0.6364 pA
- Currents at given pressure (G1994D mPIEZO1; 75 mmHg, time 200.15 ms): 0.6148 pA
- Currents at given pressure (G1994D mPIEZO1; 75 mmHg, time 200.2 ms): 0.06549 pA
- Currents at given pressure (G1994D mPIEZO1; 90 mmHg, time 200.1 ms): -1.92 pA
- Currents at given pressure (G1994D mPIEZO1; 90 mmHg, time 200.15 ms): -2.409 pA
- Currents at given pressure (G1994D mPIEZO1; 90 mmHg, time 200.2 ms): -0.1504 pA
- Currents at given pressure (G1994D mPIEZO1; 105 mmHg, time 200.1 ms): -0.4419 pA
- Currents at given pressure (G1994D mPIEZO1; 105 mmHg, time 200.15 ms): -1.449 pA
- Currents at given pressure (G1994D mPIEZO1; 105 mmHg, time 200.2 ms): 0.2905 pA
- Mean (pressure-response, Figure 5f) (G1994D mPIEZO1; pressure 0 mmHg): -1.26E-17
- Mean (pressure-response, Figure 5f) (G1994D mPIEZO1; pressure 15 mmHg): 0.03249
- Mean (pressure-response, Figure 5f) (G1994D mPIEZO1; pressure 30 mmHg): 0.03984
- pressure for 50% activation (P50), Boltzmann mid-point (G1994D mPIEZO1; in 5 μM Yoda1, -80 mV): 64.0 mmHg
- Effect on hPIEZO1 channel function (I2270T hPIEZO1; 1 μM Y1, versus WT): loss of MA: LOF; reduced 1 μM Y1 effect
- Ca2+ signal 30-60 s after application, normalized to WT, vector control subtracted, Mean (I2270T hPIEZO1; 1 μM, n = 4): 0.1013
- fluorescence (ΔFratio) (I2270T hPIEZO1; 1 μM, time 0 s): 6.26E-04
- fluorescence (ΔFratio) (I2270T hPIEZO1; 1 μM, time 5 s): -0.00991
- fluorescence (ΔFratio) (I2270T hPIEZO1; 1 μM, time 10 s): -0.00857
- fluorescence (ΔFratio) (I2270T hPIEZO1; 1 μM, time 15 s): 0.00155
- fluorescence (ΔFratio) (I2270T hPIEZO1; 1 μM, time 20 s): 0.00344
- fluorescence (ΔFratio) (I2270T hPIEZO1; 1 μM, time 25 s): 0.01286
- fluorescence (ΔFratio) (I2270T hPIEZO1; 1 μM, time 30 s): -0.01023
- fluorescence (ΔFratio) (I2270T hPIEZO1; 1 μM, time 35 s): -0.00138
- fluorescence (ΔFratio) (I2270T hPIEZO1; 1 μM, time 40 s): 0.07241
- fluorescence (ΔFratio) (I2270T hPIEZO1; 1 μM, time 45 s): 0.05056
- fluorescence (ΔFratio) (I2270T hPIEZO1; 1 μM, time 50 s): 0.06632
- fluorescence (ΔFratio) (I2270T hPIEZO1; 1 μM, time 55 s): 0.05818
- fluorescence (ΔFratio) (I2270T hPIEZO1; 1 μM, time 60 s): 0.06863
- fluorescence (ΔFratio) (I2270T hPIEZO1; 1 μM, time 65 s): 0.05602
- fluorescence (ΔFratio) (I2270T hPIEZO1; 1 μM, time 70 s): 0.06799
- fluorescence (ΔFratio) (I2270T hPIEZO1; 1 μM, time 75 s): 0.05186
- fluorescence (ΔFratio) (I2270T hPIEZO1; 1 μM, time 80 s): 0.04949
- fluorescence (ΔFratio) (I2270T hPIEZO1; 1 μM, time 85 s): 0.05597
- fluorescence (ΔFratio) (I2270T hPIEZO1; 1 μM, time 90 s): 0.06467
- fluorescence (ΔFratio) (I2270T hPIEZO1; 1 μM, time 95 s): 0.02814
- fluorescence (ΔFratio) (I2270T hPIEZO1; 1 μM, time 100 s): 0.04731
- fluorescence (ΔFratio) (I2270T hPIEZO1; 1 μM, time 105 s): 0.04051
- fluorescence (ΔFratio) (I2270T hPIEZO1; 1 μM, time 110 s): 0.04381
- fluorescence (ΔFratio) (I2270T hPIEZO1; 1 μM, time 115 s): 0.05647
- fluorescence (ΔFratio) (I2270T hPIEZO1; 1 μM, time 120 s): 0.06513
- fluorescence (ΔFratio) (I2270T hPIEZO1; 1 μM, time 125 s): 0.04171
SMILES: Clc1cccc(Cl)c1CSc1nnc(-c2cnccn2)s1 [Yoda1]
- Pressure-response, individual cells (Figure 5f) (G1994D mPIEZO1; pressure 0 mmHg): 1.59E-17 and -8.38E-17 and 0 (4×) and -2.96E-17 and -2.69E-17 and -3.91E-17 and 3.74E-17
- Pressure-response, individual cells (Figure 5f) (G1994D mPIEZO1; pressure 15 mmHg): 0.08197 and 0.01125 and 0.01265 and 0.01555 and 0.01655 and 0.00717 and 0.01084 and 0.05939 and 0.00309 and 0.1064
- Pressure-response, individual cells (Figure 5f) (G1994D mPIEZO1; pressure 30 mmHg): 0.03806 and -0.00981 and 0.03807 and 0.05062 and 0.03544 and 0.00903 and 0.00593 and 0.02358 and 0.08822 and 0.1193
